US20110212954A1, “ALPHA-LIPOIC ACID DERIVATIVES AND THEIR USE IN DRUG PREPARATION” (priority 2008, published 2011)

Assays:
[1] = test system: protein pool extracted from murine liver; assay: In vitro enzyme hydrolysis assay, thin-layer chromatography detection; assay type: in vitro ADME, mouse; conditions: 1 mg murine liver protein extract, 50 μg compound, 24 hours, 25° C.
Experimental: In view of what found from the results of Example 29, an in vitro enzyme hydrolysis assay was carried out with the aim of further clarifying which of the synthesized derivatives behaved as alpha-lipoic acid precursors, i.e. as prodrugs able to release alpha-lipoic acid by hydrolysis.
A protein pool extracted from murine liver, containing enzymes able to promote hydrolysis of the compounds of the invention, was used to reintroduce in vitro the hydrolytic activity previously described in the pharmacokinetic studies.
Methodology • The liver of a wild-type mouse was removed; excess blood was removed by washing in phosphate buffer saline (PBS); • Said liver was transferred into a homogenizer with a sufficient amount of lysis buffer (50 mM Tris HCl pH 7.5-8.0; 150 mM NaCl; 5 mM EGTA pH 7.5-8.0; 50 mM NaF pH 8.0; 10% (v/v) glycerol; 1.5 mM MgCl2, 1% Triton X-100) enriched with protease and phosphatase inhibitors (Protease Inhibitor Cocktail; Sigma-Aldrich). 15-20 impacts were applied by the pestle in order to obtain a homogeneous solution; • The entire mixture was left under agitation at +4° C. for 1 hour; after centrifugation at 14000 rpm, the supernatant containing the extracted proteins was recovered; • The amount of extracted protein was determined using the Bradford assay; • The enzymatic hydrolysis reaction was carried out: 1 mg of protein extract for hydrolysing 50 μg of synthesized compound (dissolved in DMSO); 1, 3 or 24 hours at 25° C. under agitation; • The digestion product(s) was/were detected using thin-layer chromatography: mobile phase (60:40:1 of ethyl acetate; n-hexane; acetic acid); silica plate (Sigma-Aldrich); phosphomolybdic reagent; • The digestion products were analyzed and compared with (R)-α-LA (Sigma-Aldrich), and with the non-hydrolysed compound of the invention.
It was, therefore, possible to detect (R)-alpha-lipoic acid as the hydrolysis product and to differentiate it from the enantiomers of the invention.

HepG2 cells [2] = assay: Variation in NADPH levels (total NADPH/NADP ratio), spectrophotometric kit; assay type: cell-based, human; conditions: HepG2 cells, 5, 10, 100 and 500 μM, 72 hours
From the text: (§1) Although it is known that under hyperglycemic conditions α-LA induces AMPK activation in hepatic cells, the molecular mechanisms responsible for this biochemical process are not yet known. As envisaged in the description, the inventors of the present invention have advanced the hypothesis that AMPK activation by α-LA is the result of changes in the amount of NADH and NADHP present in cells, due to the interference of α-LA and/or its analogous derivatives in the oxidation-reduction processes. To verify this hypothesis, use was made of commercial kits (by Valter Occhiena) able to analyze the variations in the cellular amounts of NAD(P)H relative to total NAD(P), in the presence of increasing concentrations of the compounds under analysis (total NAD=NADH+NAD^+; total NADP=NADPH+NADP^+).

[3] = in man, cited from earlier work
diabetic rats = conditions: diabetes type II models, high doses of α-LA (30 mg/kg in rats); cited from earlier work
[4] = Pharmacokinetic study in rats after oral administration of a single dose, HPLC-MS of plasma; assay type: in vivo; conditions: rat, single dose 48.5 μmol/kg
Experimental: The bioavailability of some compounds synthesized (Examples 1a, 2, 2a, 3, 3a, 10, 15a, 16a and 24) was studied in rats after oral administration of a single dose (48.5 μmol/kg) and compared with the reference (R)- or (RS)-α-LA.
Each treatment was carried out on groups of 6 male rats (Sprague-Dawley SD rat) per compound. At regular times, blood withdrawals were carried out for the measurement by HPLC-MS of the concentration of plasmatic α-LA (FIGS. 5, 7, 9) and of the residual compound administered (FIGS. 6, 8).

HepG2 cells [5] = assay: Variation in NADH levels (total NADH/NAD ratio), spectrophotometric kit; assay type: cell-based, human; conditions: 72 hours
From the text: as §1

[6] = test system: human hepatocarcinoma cells (HepG2 cells); assay: Evaluation of cell viability (ATPlite luminometric assay) and cell proliferation; assay type: cell-based; conditions: 1 mM
Experimental: Dose-dependent concentration studies of the synthesized compounds were carried out and compared with the effects of alpha-lipoic acid, defined as reference standard, on human hepatocarcinoma cells (HepG2 cells) with the aim of evaluating their effects on cell viability.
Analysis by optical microscope enabled any morphological changes and accumulation of lipid vesicles to be determined as well as to evaluate cell proliferation or arrest.
A luminometric assay (ATPlite, Perkin Elmer), based on the production of light caused by a reaction with the intracellular ATP of viable cells, enabled the compounds to be classified on the basis of their viability index. In this respect, the signal detected by the luminometer is proportional to the number of viable cells. […]

For CC(C)NC(=O)CCCC[C@@H]1CCSS1 [Example 8, (R)-5-[1,2]dithiolan-3-yl-pentanoic acid isopropylamide], the “amount of (R)-alpha-lipoic acid released after 24 h (FIG. 3)” value [1] was “reduced release”, the “enzymatic hydrolysis after 24 h (FIG. 3)” value [1] was “partial hydrolization” and the “effect on NADPH levels (FIG. 11)” value (HepG2 cells [2]) was “influenced NADPH levels, in a dose dependent manner”.
In the case of O=C(O)CCCC[C@@H]1CCSS1 (racemic) [α-LA, 1,2-dithiolane-3-pentanoic acid], the “bioavailability after oral administration” value ([3]; oral) is listed as “less than 30%”, the “plasma half life (t1/2)” value [3] is listed as 28 min and the “glycemia in diabetic rats” value (diabetic rats) is listed as “reduces glycemia”.
With O=C(CCCCC1CCSS1)NCCCN1CCOCC1 (racemic) [Example 3a, 5-[1,2]dithiolan-3-yl-pentanoic acid(3-morpholin-4-yl-propyl)-amide] the “released alpha-lipoic acid and compound itself in plasma, any withdrawal time” value [4] was “neither released alpha-lipoic acid nor the compound itself was detected”, the “NADH levels relative to control at 5 μM (FIG. 10)” value (HepG2 cells [5]; 5 μM) was “lower NADH levels than the control” and the “effect on NADPH levels (FIG. 11)” value (HepG2 cells [2]) was “influenced NADPH levels, in a dose dependent manner”.
With O=C(O)CCCC[C@@H]1CCSS1 [(R)-α-LA, (R)-alpha-lipoic acid, reference compound] the “confluence reached by HepG2 cells (arrest of cell proliferation)” value [6] was 60-70%, the “amount of NADH at high concentrations (FIG. 10)” value (HepG2 cells [5]; 100 and 500 μm) was “decrease in NADH levels” and the “effect on NADPH levels (FIG. 11)” value (HepG2 cells [2]) was “influenced NADPH levels, in a dose dependent manner”.
In the case of CC(=O)NCCNC(=O)CCCCC1CCSS1 (racemic) [Example 10a, 5-[1,2]dithiolan-3-yl-pentanoic acid(2-acetylamino-ethyl)-amide], the melting point is reported as 144.6 to 145.8 °C.
With CC(=O)NCCNC(=O)CCCC[C@@H]1CCSS1 [Example 10, (R)-5-[1,2]dithiolan-3-yl-pentanoic acid(2-acetylamino-ethyl)-amide] the melting point was 144.6 to 145.8 °C.
